The structures appear in SMILES notation. A value given as a limit tells only on which side of the number the result lay.

This assay addresses T1, human Plk4 kinase domain (aa 2-275) (Homo sapiens, UniProt O00444).
T1 construct: purified 6×His-tagged human Plk4 kinase domain (aa 2-275); 6xHis; made in house; host or cells: E. coli
T1 sequence (O00444 2-275): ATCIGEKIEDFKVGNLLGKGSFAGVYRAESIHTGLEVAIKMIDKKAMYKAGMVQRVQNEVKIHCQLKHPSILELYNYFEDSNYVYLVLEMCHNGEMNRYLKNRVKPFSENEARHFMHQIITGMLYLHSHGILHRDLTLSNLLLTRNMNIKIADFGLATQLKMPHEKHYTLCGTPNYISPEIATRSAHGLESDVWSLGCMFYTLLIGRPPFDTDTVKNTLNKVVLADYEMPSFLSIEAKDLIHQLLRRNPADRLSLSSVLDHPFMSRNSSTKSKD
The assay is described as follows: Plk4 kinase assay (ADP-Glo). The conditions noted are these: Table 1. It counts as biochemical. Put shortly: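 Enzyme at 2.5-10 nM final, pH 8.0, reacted 4-16 hours at 25° C; ADP generation read by ADP-Glo luminescence. Ki derived from IC50 by Cheng-Prusoff or, for tight binders, Copeland formalism.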
(ADP-Glo first removes unused ATP, then detects ADP through luciferase.)
In the case of `Cc1cc(Nc2nc(Sc3ccc(NC(=O)C4CC4)cc3)nc(N3CCN(C)CC3)c2CO)n[nH]1`, the IC50 lay in the range of 0.1 to 1 µM.

Consider `Cc1cc(Nc2nc(Sc3ccc(NC(=O)C4CC4)cc3)nc(N3CCN(C(C)C)CC3)c2C)n[nH]1`, for which the concentration for half-maximal inhibition (IC50) was under 1 µM.

`CC(=O)N1CCN(c2nc(Sc3ccc(NC(=O)C4CC4)cc3)nc(Nc3cc(C)[nH]n3)c2C)CC1` had an IC50 of under 1 µM.

Compound `COCCN1CCN(c2nc(Sc3ccc(NC(=O)C4CC4)cc3)nc(Nc3cc(C)[nH]n3)c2C)CC1` returned an IC50 of under 1 µM.

Compound `Cc1cc(Nc2nc(Sc3ccc(NC(=O)C4CC4)cc3)nc(N3CCN(C)C(C)C3)c2C)n[nH]1` (stereo not drawn) yielded an IC50 of under 1 µM.

As for `Cc1cc(Nc2nc(Sc3ccc(NC(=O)C4CC4)cc3)nc(N3CCN(CCN(C)C)CC3)c2C)n[nH]1`, the IC50 was under 1 µM.

`CCOc1c(Nc2cc(C)[nH]n2)nc(Sc2ccc(NC(=O)C3CCCC3)cc2)nc1N1CCN(C(=O)CN(C)C)CC1` had an IC50 of 0.1 to 1 µM.

Compound `CCOc1c(Nc2cc(C)[nH]n2)nc(Sc2ccc(NC(=O)C3CCCC3)cc2)nc1N1CCN(C(=O)COC)CC1` came in with an IC50 of 0.1 to 1 µM.

`CCOc1c(Nc2cc(C)[nH]n2)nc(Sc2ccc(NC(=O)C3CCCC3)cc2)nc1N1CCN(C(=O)CCOC)CC1` returned an IC50 of 0.1 to 1 µM.

With `CCOc1c(Nc2cc(C)[nH]n2)nc(Sc2ccc(NC(=O)C3CCCC3)cc2)nc1N1CCN(C2CCN(C)CC2)CC1`, the IC50 was in the range of 0.1 to 1 µM.

Compound `CCOc1c(Nc2cc(C)[nH]n2)nc(Sc2ccc(NC(=O)C3CCCC3)cc2)nc1N1CCN(CC2CC2)CC1` returned an IC50 of 0.1 to 1 µM.

`COc1c(Nc2cc(C)[nH]n2)nc(Sc2ccc(NC(=O)C3CC3)cc2)nc1NC1CCN(C)CC1` returned an IC50 of 0.1 to 1 µM.

As to `CCOc1c(Nc2cc(C)[nH]n2)nc(Sc2ccc(NC(=O)C3CC3)cc2)nc1N1CCN(C(=O)CN(C)C)CC1`, the IC50 was in the range of 0.1 to 1 µM.

Turning to `CCOc1c(Nc2cc(C)[nH]n2)nc(Sc2ccc(NC(=O)C3CC3)cc2)nc1N1CCN(C2CCNCC2)CC1`, the IC50 fell in the range of 0.1 to 1 µM.

Compound `CCOc1c(Nc2cc(C)[nH]n2)nc(Sc2ccc(NC(C)=O)cc2)nc1N1CCN(C)CC1` showed a half-inhibitory concentration (IC50) of 0.1 to 1 µM.

In turn, `CCOc1c(Nc2cc(C)[nH]n2)nc(Sc2ccc(NC(C)=O)cc2)nc1N(C)C` registered an IC50 of 0.1 to 1 µM.

Regarding `CCOc1c(Nc2cc(C)[nH]n2)nc(Sc2ccc(NC(=O)C3CCCC3)cc2)nc1N1CCN(C2CCNCC2)CC1`, the IC50 lay within 0.1 to 1 µM.

The compound `CCOc1c(Nc2cc(C)[nH]n2)nc(Sc2ccc(NC(=O)C3CCCC3)cc2)nc1N1CCN(C)CC1` had an IC50 of 0.1 to 1 µM.

`CCOc1c(Nc2cc(C)[nH]n2)nc(Sc2ccc(NC(=O)C3CCCC3)cc2)nc1N(C)C` gave an IC50 of 0.1 to 1 µM.

Regarding `CC(=O)Nc1ccc(Sc2nc(Nc3cc(C)[nH]n3)c(C)c(N3CCN(CCN(C)C)CC3)n2)cc1`, the IC50 was under 1 µM.

In the case of `COCCN1CCN(c2nc(Sc3ccc(NC(C)=O)cc3)nc(Nc3cc(C)[nH]n3)c2C)CC1`, the IC50 was under 1 µM.

`CC(=O)Nc1ccc(Sc2nc(Nc3cc(C)[nH]n3)c(C)c(N3CCN(C(C)=O)CC3)n2)cc1` gave an IC50 of under 1 µM.

On to `CC(=O)Nc1ccc(Sc2nc(Nc3cc(C)[nH]n3)c(C)c(N3CCNCC3)n2)cc1`, for which the IC50 is under 1 µM.

Turning to `CC(=O)Nc1ccc(Sc2nc(Nc3cc(C)[nH]n3)c(C)c(N3CCOCC3)n2)cc1`, the IC50 was under 1 µM.

The compound `CC(=O)Nc1ccc(Sc2nc(Nc3cc(C)[nH]n3)c(C)c(N3CCN(C4CCN(C)CC4)CC3)n2)cc1` yielded an IC50 of under 1 µM.

Regarding `Cc1cc(Cc2nc(Sc3ccc(NC(=O)C4CCCC4)cc3)nc(N3CCN(CCN(C)C)CC3)c2C)n[nH]1`, the IC50 was under 1 µM.

Compound `COCCN1CCN(c2nc(Sc3ccc(NC(=O)C4CCCC4)cc3)nc(Cc3cc(C)[nH]n3)c2C)CC1` displayed an IC50 of under 1 µM.

As for `CC(=O)N1CCN(c2nc(Sc3ccc(NC(=O)C4CCCC4)cc3)nc(Nc3cc(C)[nH]n3)c2C)CC1`, the IC50 was under 1 µM.

`Cc1cc(Nc2nc(Sc3ccc(NC(=O)C4CCCC4)cc3)nc(N3CCNCC3)c2C)n[nH]1`: the IC50 is under 1 µM.

Compound `Cc1cc(Nc2nc(Sc3ccc(NC(=O)C4CCCC4)cc3)nc(N3CCOCC3)c2C)n[nH]1` had a concentration for half-maximal inhibition (IC50) of under 1 µM.

In turn, `Cc1cc(Nc2nc(Sc3ccc(NC(=O)C4CCCC4)cc3)nc(N3CCN(C4CCN(C)CC4)CC3)c2C)n[nH]1` gave an IC50 of under 1 µM.

`COc1c(Nc2cc(C)[nH]n2)nc(Sc2ccc(NC(C)=O)cc2)nc1N1CCCCC1` had an IC50 of under 1 µM.

On to `CCOc1c(Nc2cc(C)[nH]n2)nc(Sc2ccc(NC(=O)C3CCCC3)cc2)nc1N1CCN(C(=O)CCN(C)C)CC1`, for which the IC50 is over 1 µM.

`CCSc1c(Nc2cc(C)[nH]n2)nc(Sc2ccc(NC(=O)C3CC3)cc2)nc1N1CCN(C)CC1` came in with an IC50 of 0.1 to 1 µM.

In turn, `CC(=O)Nc1ccc(Sc2nc(Nc3cc(C)[nH]n3)c(C)c(N(C)C(C)C)n2)cc1` registered an IC50 of under 1 µM.

As to `CC(=O)Nc1ccc(Sc2nc(Nc3cc(C)[nH]n3)c(C)c(N3CCN(C(=O)CCN(C)C)CC3)n2)cc1`, the IC50 is under 1 µM.

Consider `COCC(=O)N1CCN(c2nc(Sc3ccc(NC(C)=O)cc3)nc(Nc3cc(C)[nH]n3)c2C)CC1`, for which the IC50 is under 1 µM.

`Cc1cc(Nc2nc(Sc3ccc(NC(=O)C4CCCC4)cc3)nc(N(C)C(C)C)c2C)n[nH]1` showed an IC50 of under 1 µM.

`COCC(=O)N1CCN(c2nc(Sc3ccc(NC(=O)C4CCCC4)cc3)nc(Nc3cc(C)[nH]n3)c2C)CC1` displayed an IC50 of under 1 µM.

As to `Cc1cc(Nc2nc(Sc3ccc(NC(=O)C4CCCC4)cc3)nc(N3CCCCC3)c2C)n[nH]1`, the IC50 is under 1 µM.

Consider `CCN(CC)c1nc(Sc2ccc(NC(=O)C3CCCC3)cc2)nc(Nc2cc(C)[nH]n2)c1C`, for which the IC50 fell in the range of 0.1 to 1 µM.

`CCN(C)c1nc(Sc2ccc(NC(=O)C3CCCC3)cc2)nc(Nc2cc(C)[nH]n2)c1C` returned an IC50 of under 1 µM.

`Cc1cc(Nc2nc(Sc3ccc(NC(=O)C4CCCC4)cc3)nc(N(C)C)c2C)n[nH]1` had a 50% inhibitory concentration (IC50) of under 1 µM.

For the compound `CSc1c(Nc2cc(C)[nH]n2)nc(Sc2ccc(NC(=O)C3CC3)cc2)nc1N1CCN(C)CC1`, the IC50 was 0.1 to 1 µM.

For `CC(=O)Nc1ccc(Sc2nc(Nc3cc(C)[nH]n3)c(C)c(N3CCC(O)CC3)n2)cc1`, the IC50 is under 1 µM.

`CC(=O)Nc1ccc(Sc2nc(Nc3cc(C)[nH]n3)c(C)c(N3CCCC3)n2)cc1` came in with an IC50 of under 1 µM.

Compound `CC(=O)Nc1ccc(Sc2nc(Nc3cc(C)[nH]n3)c(C)c(N3CCCCCC3)n2)cc1` came in with an IC50 of under 1 µM.

`Cc1cc(Nc2nc(Sc3ccc(NC(=O)C4CC4)cc3)nc(N3CCN(C)CC3)c2Cl)n[nH]1` returned an IC50 of 0.1 to 1 µM.

Regarding `CC(=O)Nc1ccc(Sc2nc(Nc3cc(C)[nH]n3)c(C)c(N3CC=CCC3)n2)cc1`, the IC50 is under 1 µM.

As to `CC(=O)Nc1ccc(Sc2nc(Nc3cc(C)[nH]n3)c(C)c(N3CC=C(F)CC3)n2)cc1`, the IC50 was under 1 µM.

`CC(=O)Nc1ccc(Sc2nc(Nc3cc(C)[nH]n3)c(C)c(N3CCC(C)CC3)n2)cc1`: the IC50 is under 1 µM.

`CC(=O)Nc1ccc(Sc2nc(Nc3cc(C)[nH]n3)c(Cl)c(N3CCN(C)CC3)n2)cc1` yielded an IC50 of under 1 µM.

Compound `CSc1nc(Nc2cc(C)[nH]n2)c(C)c(N2CCCCC2)n1` displayed an IC50 of under 1 µM.

In the case of `Cc1cc(Nc2nc(Sc3ccccc3)nc(N3CCCCC3)c2C)n[nH]1`, the IC50 is under 1 µM.

`Cc1ccc(Sc2nc(Nc3cc(C)[nH]n3)c(C)c(N3CCCCC3)n2)cc1`: the IC50 was under 1 µM.

Consider `Cc1cc(Nc2nc(Sc3ccc(N)cc3)nc(N3CCCCC3)c2C)n[nH]1`, for which the IC50 was under 1 µM.

`CNC(=O)Nc1ccc(Sc2nc(Nc3cc(C)[nH]n3)c(C)c(N3CCCCC3)n2)cc1` showed an IC50 of under 1 µM.

As usually defined, the IC50 is the concentration needed to halve the response being measured.

These data come from patent US10752612B2, “PLK4 inhibitors” (LUDWIG INSTITUTE FOR CANCER RESEARCH LTD, priority 2015, dated 2020).
